Measurements as given in US20090317364A1, “NOVEL COMPOSITIONS FOR PREVENTION AND TREATMENT OF MASTITIS AND METRITIS” (priority 2006, published 2009).

Legend:
[1] = test system: Staphylococcus. aureus; assay: Lab trials 2a (in vitro) for synergy, components added in wells for diffusion; assay type: cell-based
Source text: a) Lab trials 2a (in vitro) for synergy.

[2] = test system: Staphylococcus. aureus; assay: Lab trials 2b (in vitro) for synergy, components added on top of the culture; assay type: cell-based
Source text: b) Lab trials 2b (in vitro) for synergy.

Substance: Peptidoglycan N-acetylmuramoylhydrolase [Lysozyme]
- Inhibition zone diameter In cm for Staphylococcus. aureus [1]: 1.15 cm
- Inhibition zone In diameter cm for Staphylococcus. aureus [2]: 1.1 cm
